Results: patent US11911382B2, “Method for treating pulmonary arterial hypertension and associated pulmonary arterial hypertension” (Altavant Sciences GmbH, priority 2018, dated 2024)

Tests used:
[1] = system: 5-HIAA; experiment: plasma 5-HIAA in healthy human subjects; type: in vivo; details: 400 mg BID, Day 1 to Day 14
Method: (§1) Mean change in plasma 5-HIAA may be about −53% from Day 1 to Day 14, whereas placebo may be about +26%. Interpolation of KAR5417 AUC between 400 mg and 800 mg BID regimens may show 500-600 mg BID in humans will achieve the target exposure associated with efficacy in rat models.

[2] = system: established PAH, SUGEN-hypoxia treatment model; experiment: SUGEN-hypoxia treatment model for established PAH; type: in vivo; details: rat, oral RVT-1201 100 mg/kg/day
[3] = system: serotonin biosynthesis; experiment: serotonin biomarkers in rat (serum serotonin, urinary 5-HIAA); type: in vivo; details: 30 to 300 mg/kg/day, dose-dependent
Method: RVT-1201 (30 to 300 mg/kg/day) may yield a dose-dependent reduction in rat serum serotonin (−27% to −96%) and 24 h urinary output of 5-HIAA (−45% to −56%). HIAA is a metabolite that reflects total serotonin biosynthesis.

[4] = biological target: T1, TPH1 (Mus musculus, UniProt P17532); details: amorphous form; cited from earlier work
T1 construct: from tissue; host or cells: live mice (in vivo)
T1 sequence (P17532 1-447): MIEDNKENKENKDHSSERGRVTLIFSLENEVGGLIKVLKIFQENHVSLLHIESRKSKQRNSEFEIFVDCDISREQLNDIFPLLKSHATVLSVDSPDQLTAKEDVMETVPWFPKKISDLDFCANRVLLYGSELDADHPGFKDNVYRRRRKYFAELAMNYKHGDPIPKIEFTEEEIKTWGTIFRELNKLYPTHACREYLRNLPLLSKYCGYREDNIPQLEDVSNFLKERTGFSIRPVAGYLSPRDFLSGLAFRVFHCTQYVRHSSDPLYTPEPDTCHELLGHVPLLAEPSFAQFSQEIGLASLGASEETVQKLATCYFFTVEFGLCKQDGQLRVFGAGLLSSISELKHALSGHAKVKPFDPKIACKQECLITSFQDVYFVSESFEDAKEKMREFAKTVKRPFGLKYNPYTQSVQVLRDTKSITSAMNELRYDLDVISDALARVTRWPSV

[5] = system: serotonin biomarkers; experiment: divided dose studies in rats; type: in vivo, rat
[6] = pharmacokinetics in healthy human subjects; type: in vivo; details: humans, interpolation of KAR5417 AUC between 400 mg and 800 mg BID regimens
Method: (§2) Healthy human subjects (n=˜120) may receive RVT-1201.
as §1

[7] = system: PAH, monocrotaline prevention model; experiment: monocrotaline prevention model of PAH; type: in vivo; details: rat, oral RVT-1201 100 mg/kg/day
[8] = safety and tolerability in healthy human subjects; type: in vivo; details: doses required to achieve clinically-relevant AUC
Method: as §2, §1

[9] = stability of crystalline polymorphs; type: physicochemical; details: particularly at temperatures of less than 95° C.
Source text: The above-referenced compound can be used to prevent or treat PAH/APAH in either an amorphous or crystalline form. Two different polymorph crystalline forms are identified by x-ray powder diffraction patterns set forth in FIG. 1 (Form 3) and FIG. 2 (Form 1) as well as Tables 1 and 2 (Form 3) and Tables 3 and 4 (Form 1).

Structure (SMILES)	mean change in plasma 5-HIAA [1]	effect on PAH [2]	reduction in 24 h urinary output of 5-HIAA [3]	reduction in rat serum serotonin [3]	efficacy in inhibiting TPH1 in mice [4]	once daily administration versus BID or TID regimens [5]	serotonin reduction ([5]; 75 mg/kg/day, divided dose studies)	BID dose achieving target exposure associated with efficacy in rat models [6]	effect on PAH [7]	tolerability [8]	stability and shelf life compared to crystalline Form 1 polymorph [9]
CCOC(=O)[C@@H]1CC2(CCN(c3cc(O[C@H](c4ccc(Cl)cc4-c4ccccc4)C(F)(F)F)nc(N)n3)CC2)CN1 [RVT-1201, (S)-ethyl 8-(2-amino-6-((R)-1-(5-chloro-[1,1′-biphenyl]-2-yl)-2,2,2-trifluoroethoxy)pyrimidin-4-yl)-2,8-diazaspiro[4.5]decane-3-carboxylate]	about −53%	block or ameliorate PAH	−45% to −56%	−27% to −96%	demonstrated	comparable to BID or TID regimens	~65%	500 to 600 mg	block or ameliorate PAH	well tolerated	–
CCOC(=O)[C@@H]1CC2(CCN(c3cc(O[C@H](c4ccc(Cl)cc4-c4ccccc4)C(F)(F)F)nc(N)n3)CC2)CN1 [crystalline Form 3, (S)-ethyl 8-(2-amino-6-((R)-1-(5-chloro-[1,1′-biphenyl]-2-yl)-2,2,2-trifluoroethoxy)pyrimidin-4-yl)-2,8-diazaspiro[4.5]decane-3-carboxylate]	–	–	–	–	–	–	–	–	–	–	substantially greater stability and shelf life
